SMILES strings stand for the structures. Calls of active or inactive are those of the source. Cut-off read from the data, not from the text of the source, for most assays here: actives have a measured Kd and inactives only a lower limit.

Assay [1] concerns the target Serine/threonine-protein kinase SIK3 (Homo sapiens, UniProt Q9Y2K2).
Assay [2] concerns the target Interleukin-1 receptor-associated kinase 1 (Homo sapiens, UniProt P51617).
The target of assay [3] is Tyrosine-protein kinase Yes (Homo sapiens, UniProt P07947).
Tyrosine-protein kinase Yes, sequence (P07947 whole entry): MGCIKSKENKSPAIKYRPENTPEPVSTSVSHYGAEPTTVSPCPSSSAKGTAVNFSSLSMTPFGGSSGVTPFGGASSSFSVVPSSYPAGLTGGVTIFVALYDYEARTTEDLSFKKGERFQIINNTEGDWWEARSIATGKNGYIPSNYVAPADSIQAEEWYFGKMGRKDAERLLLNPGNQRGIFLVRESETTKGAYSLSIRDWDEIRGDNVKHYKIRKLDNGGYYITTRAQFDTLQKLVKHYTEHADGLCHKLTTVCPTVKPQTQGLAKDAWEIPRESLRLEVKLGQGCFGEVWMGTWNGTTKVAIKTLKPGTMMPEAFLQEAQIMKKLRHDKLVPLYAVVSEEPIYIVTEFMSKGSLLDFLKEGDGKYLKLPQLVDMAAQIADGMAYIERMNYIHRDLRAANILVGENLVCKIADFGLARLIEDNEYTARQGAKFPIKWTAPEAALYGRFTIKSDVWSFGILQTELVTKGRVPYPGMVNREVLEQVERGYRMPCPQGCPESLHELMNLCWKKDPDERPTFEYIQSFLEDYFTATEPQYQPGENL
Assay [4] has as its target MAP kinase-activated protein kinase 2 (Homo sapiens, UniProt P49137).
Assay [5] concerns the target Dual specificity protein kinase CLK2 (Homo sapiens, UniProt P49760).
The next assay concerns the target Myosin-10 (Homo sapiens, UniProt P35580).
Assay [6] concerns the target T1, Membrane-associated tyrosine- and threonine-specific cdc2-inhibitory kinase (Homo sapiens, UniProt Q99640).
T1 sequence (Q99640 whole entry): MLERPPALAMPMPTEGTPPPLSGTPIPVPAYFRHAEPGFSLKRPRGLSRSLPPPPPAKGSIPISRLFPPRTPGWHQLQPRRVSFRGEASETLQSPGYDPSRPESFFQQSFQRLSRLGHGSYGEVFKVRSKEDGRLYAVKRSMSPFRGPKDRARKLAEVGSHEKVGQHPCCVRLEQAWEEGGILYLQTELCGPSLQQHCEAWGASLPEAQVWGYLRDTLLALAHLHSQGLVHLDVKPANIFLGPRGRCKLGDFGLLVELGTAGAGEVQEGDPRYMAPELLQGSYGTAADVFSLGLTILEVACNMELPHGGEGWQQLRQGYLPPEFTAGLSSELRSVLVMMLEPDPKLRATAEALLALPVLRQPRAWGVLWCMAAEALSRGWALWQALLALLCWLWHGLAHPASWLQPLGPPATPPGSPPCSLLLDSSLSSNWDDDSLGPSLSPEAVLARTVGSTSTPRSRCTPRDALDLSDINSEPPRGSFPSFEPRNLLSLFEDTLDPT

Assay [7] has as its target T2, Serine/threonine-protein kinase LATS1 (Homo sapiens, UniProt O95835).
T2 sequence (O95835 whole entry): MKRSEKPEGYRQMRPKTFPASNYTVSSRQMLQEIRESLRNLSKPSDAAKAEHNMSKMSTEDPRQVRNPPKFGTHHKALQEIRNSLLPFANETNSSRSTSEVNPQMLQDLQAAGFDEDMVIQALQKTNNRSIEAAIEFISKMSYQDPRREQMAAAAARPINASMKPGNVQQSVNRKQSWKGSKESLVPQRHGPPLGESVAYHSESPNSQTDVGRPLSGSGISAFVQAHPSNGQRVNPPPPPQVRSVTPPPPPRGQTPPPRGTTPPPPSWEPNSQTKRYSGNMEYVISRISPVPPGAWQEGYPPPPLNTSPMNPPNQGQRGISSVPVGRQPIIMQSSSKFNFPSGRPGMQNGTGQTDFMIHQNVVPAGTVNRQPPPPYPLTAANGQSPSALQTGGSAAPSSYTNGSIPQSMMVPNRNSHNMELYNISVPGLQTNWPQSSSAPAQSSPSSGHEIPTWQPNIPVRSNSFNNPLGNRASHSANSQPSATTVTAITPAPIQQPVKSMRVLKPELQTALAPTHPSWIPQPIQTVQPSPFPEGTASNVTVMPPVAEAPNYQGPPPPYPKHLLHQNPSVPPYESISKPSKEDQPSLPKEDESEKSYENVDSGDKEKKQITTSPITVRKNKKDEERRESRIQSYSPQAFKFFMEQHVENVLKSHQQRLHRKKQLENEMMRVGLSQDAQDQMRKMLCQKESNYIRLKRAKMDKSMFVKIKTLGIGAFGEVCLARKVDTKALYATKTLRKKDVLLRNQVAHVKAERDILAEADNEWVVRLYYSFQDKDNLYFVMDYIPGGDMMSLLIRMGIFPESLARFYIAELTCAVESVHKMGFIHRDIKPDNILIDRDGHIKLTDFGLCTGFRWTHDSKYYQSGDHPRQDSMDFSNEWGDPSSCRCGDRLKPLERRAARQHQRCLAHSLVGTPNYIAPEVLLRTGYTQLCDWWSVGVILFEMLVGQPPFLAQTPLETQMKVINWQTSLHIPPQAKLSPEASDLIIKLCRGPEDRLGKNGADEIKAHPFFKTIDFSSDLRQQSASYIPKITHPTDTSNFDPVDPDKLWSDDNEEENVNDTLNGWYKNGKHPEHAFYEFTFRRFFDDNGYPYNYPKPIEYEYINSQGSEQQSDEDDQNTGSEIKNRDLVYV

Assay [8] addresses Tyrosine-protein kinase Fyn (Homo sapiens, UniProt P06241).
The target in assay [9] is PAS domain-containing serine/threonine-protein kinase (Homo sapiens, UniProt Q96RG2).
Note: in the data inactive means no Kd found up to 30 µM.

Interleukin-1 receptor-associated kinase 1, sequence (P51617 whole entry): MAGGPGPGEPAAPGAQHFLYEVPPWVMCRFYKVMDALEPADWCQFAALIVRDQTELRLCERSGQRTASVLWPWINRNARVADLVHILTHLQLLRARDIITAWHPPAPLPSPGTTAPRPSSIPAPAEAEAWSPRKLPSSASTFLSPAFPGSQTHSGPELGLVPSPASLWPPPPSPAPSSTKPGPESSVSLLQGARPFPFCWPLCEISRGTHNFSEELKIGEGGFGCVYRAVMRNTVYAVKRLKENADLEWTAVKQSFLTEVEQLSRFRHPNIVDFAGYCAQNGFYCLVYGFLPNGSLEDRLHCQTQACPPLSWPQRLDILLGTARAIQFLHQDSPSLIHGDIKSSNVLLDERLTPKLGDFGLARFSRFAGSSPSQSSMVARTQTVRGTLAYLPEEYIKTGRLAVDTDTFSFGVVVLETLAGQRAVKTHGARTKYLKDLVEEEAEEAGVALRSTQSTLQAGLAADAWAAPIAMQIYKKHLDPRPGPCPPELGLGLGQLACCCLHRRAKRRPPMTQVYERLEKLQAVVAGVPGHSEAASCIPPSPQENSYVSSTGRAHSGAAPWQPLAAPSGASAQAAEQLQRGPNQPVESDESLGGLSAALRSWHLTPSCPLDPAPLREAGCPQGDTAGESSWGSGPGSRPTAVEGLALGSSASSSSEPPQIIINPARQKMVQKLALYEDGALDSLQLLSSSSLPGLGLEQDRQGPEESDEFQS
Tyrosine-protein kinase Fyn, sequence (P06241 whole entry, the tested form may be a part): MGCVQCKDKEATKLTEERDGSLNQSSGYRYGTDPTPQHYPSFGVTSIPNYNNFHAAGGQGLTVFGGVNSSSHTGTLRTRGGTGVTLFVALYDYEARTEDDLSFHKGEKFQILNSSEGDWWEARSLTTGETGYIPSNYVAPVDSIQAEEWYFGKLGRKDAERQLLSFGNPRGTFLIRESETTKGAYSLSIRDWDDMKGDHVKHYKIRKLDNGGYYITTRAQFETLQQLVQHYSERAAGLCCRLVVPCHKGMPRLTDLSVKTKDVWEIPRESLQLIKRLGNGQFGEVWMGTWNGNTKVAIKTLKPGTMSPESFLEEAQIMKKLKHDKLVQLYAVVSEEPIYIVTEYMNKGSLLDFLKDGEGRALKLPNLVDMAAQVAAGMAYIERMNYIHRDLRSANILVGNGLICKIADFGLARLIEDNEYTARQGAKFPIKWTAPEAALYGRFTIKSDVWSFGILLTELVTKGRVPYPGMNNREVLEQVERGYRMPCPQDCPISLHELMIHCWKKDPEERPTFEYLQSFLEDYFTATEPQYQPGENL
Myosin-10, sequence (P35580 whole entry): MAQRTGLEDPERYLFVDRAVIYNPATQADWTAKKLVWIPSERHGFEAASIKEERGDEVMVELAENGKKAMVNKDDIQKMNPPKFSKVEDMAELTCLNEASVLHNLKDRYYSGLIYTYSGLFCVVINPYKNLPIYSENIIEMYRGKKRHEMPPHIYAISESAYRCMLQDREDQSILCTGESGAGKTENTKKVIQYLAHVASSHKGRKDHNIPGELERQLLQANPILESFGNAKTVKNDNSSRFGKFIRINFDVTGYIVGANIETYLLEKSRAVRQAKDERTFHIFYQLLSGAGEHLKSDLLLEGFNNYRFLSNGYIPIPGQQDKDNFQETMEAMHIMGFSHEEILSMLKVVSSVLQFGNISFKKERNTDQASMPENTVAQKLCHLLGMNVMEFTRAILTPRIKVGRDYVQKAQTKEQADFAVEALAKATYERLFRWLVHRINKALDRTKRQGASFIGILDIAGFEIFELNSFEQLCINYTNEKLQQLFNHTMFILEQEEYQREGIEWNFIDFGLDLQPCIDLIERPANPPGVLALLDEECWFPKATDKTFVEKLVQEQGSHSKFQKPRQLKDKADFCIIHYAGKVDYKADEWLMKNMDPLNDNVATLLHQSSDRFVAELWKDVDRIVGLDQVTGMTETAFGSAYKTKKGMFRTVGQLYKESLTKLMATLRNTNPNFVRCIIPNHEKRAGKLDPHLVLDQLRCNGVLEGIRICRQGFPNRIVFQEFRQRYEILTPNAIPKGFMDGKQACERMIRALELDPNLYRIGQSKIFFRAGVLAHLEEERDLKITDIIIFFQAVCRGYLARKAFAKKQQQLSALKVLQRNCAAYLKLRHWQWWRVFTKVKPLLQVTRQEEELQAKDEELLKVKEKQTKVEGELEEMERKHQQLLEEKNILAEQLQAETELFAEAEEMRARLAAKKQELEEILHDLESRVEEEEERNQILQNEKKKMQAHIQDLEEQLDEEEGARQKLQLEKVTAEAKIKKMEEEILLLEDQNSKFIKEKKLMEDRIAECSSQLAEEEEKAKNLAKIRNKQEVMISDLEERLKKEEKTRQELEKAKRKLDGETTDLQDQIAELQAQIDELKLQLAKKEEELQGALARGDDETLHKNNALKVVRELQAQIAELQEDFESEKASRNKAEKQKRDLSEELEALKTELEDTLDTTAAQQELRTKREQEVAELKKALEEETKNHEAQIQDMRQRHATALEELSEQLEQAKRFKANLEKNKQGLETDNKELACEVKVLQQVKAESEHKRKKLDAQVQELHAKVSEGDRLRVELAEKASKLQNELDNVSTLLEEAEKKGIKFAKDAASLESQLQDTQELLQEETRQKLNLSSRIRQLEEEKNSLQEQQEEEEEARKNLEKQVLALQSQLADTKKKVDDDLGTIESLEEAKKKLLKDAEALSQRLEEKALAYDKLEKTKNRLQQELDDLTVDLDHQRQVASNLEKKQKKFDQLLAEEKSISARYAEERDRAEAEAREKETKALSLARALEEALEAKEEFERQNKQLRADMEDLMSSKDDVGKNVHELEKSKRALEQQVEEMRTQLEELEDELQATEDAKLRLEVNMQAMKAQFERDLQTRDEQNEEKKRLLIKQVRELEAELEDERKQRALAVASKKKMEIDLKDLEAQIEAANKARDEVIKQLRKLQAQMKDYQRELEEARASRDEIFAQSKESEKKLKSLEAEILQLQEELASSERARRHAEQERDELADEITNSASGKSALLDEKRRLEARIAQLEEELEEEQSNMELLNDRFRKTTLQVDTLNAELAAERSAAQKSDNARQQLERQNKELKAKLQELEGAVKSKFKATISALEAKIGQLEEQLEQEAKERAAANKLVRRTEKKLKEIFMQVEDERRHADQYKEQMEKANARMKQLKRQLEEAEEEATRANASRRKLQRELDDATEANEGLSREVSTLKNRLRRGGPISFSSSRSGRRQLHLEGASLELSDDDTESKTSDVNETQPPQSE
MAP kinase-activated protein kinase 2, sequence (P49137 whole entry): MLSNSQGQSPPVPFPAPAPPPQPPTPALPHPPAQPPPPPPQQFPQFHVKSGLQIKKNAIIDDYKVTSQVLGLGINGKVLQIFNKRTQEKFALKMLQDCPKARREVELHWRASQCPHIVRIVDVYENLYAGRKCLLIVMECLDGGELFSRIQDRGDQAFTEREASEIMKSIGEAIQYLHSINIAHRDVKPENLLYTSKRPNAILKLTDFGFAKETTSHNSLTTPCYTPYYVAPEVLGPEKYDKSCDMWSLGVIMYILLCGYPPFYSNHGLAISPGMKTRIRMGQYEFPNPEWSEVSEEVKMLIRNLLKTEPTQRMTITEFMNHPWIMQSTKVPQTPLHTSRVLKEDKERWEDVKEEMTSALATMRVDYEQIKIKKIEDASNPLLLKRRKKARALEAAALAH
Dual specificity protein kinase CLK2, sequence (P49760 whole entry): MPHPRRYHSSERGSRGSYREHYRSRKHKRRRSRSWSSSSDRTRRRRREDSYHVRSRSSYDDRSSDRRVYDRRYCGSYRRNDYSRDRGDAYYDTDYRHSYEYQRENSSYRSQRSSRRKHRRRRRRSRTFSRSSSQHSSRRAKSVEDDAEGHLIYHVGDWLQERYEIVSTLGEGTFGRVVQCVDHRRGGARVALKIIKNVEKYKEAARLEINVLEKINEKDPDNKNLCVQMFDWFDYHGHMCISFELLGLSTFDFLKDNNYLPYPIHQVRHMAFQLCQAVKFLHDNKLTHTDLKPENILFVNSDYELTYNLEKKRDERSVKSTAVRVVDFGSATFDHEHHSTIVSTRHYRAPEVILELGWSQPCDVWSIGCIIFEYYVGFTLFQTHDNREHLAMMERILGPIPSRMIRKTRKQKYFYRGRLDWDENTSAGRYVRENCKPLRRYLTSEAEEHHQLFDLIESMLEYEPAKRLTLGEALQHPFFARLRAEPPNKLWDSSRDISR

As for `Cc1nc2cc(-c3nn(C(C)C)c4ncnc(N)c34)ccc2o1`, the Kd (in [1]; in [2]; in assay [3]; in [4]; in [5]; at Myosin-10) was > 30 µM (inactive) each time. For the same molecule, the Kd in [6], in [7] and in assay [8] was > 30 µM (inactive) each time.

On to `Cc1csc(-c2nnc(Nc3ccc(Oc4ncccc4-c4ccnc(N)n4)cc3)c3ccccc23)c1` [AMG-900], for which the Kd in [1] was > 30 µM (inactive); in assay [2] it was > 30 µM (inactive); in assay [3] it was > 30 µM (inactive); in assay [4], 2.69 µM (active); in assay [5] it was 3.22 µM (active); at Myosin-10, > 30 µM (inactive). The Kd in assay [6], in assay [7] and in assay [8] was > 30 µM (inactive) in each case.

For `O=C(Nc1c[nH]nc1-c1nc2cc(CN3CCOCC3)ccc2[nH]1)NC1CC1` [AT-9283], the Kd in [1] is 4.11 µM (active); in [2], > 30 µM (inactive); in assay [3] it was 0.574 µM (active); in assay [4], > 30 µM (inactive); in assay [9], > 30 µM (inactive); in assay [5], > 30 µM (inactive). The Kd at Myosin-10 is > 30 µM (inactive); in [6], > 30 µM (inactive); in [7], 0.045 µM (active).

For the molecule `COCC(=O)NC/C=C/c1ccc2ncnc(Nc3ccc(Oc4ccc(C)nc4)c(C)c3)c2c1` [CP-724714], the Kd (in [1]; in assay [2]; in [3]; in assay [4]; in assay [5]; at Myosin-10) was > 30 µM (inactive) each time. The Kd in assay [6], in [7] and in assay [8] was > 30 µM (inactive) in each case.

For `CC(C)(C)c1nc(-c2cccc(NS(=O)(=O)c3c(F)cccc3F)c2F)c(-c2ccnc(N)n2)s1` [DABRAFENIB], the Kd in assay [1] is 2 µM (active); in assay [3], 1.28 µM; in assay [9] it was > 30 µM (inactive); in assay [5] it was > 30 µM (inactive); at Myosin-10, > 30 µM (inactive); in assay [6], > 30 µM (inactive). The Kd in assay [7] is > 30 µM (inactive).

With `O=C(Nc1nc2cccc(-c3ccc(CN4CCS(=O)(=O)CC4)cc3)n2n1)C1CC1` [FILGOTINIB], the Kd in assay [1] was > 30 µM (inactive); in [2], 4.71 µM (active); in [3], > 30 µM (inactive); in assay [4], > 30 µM (inactive); in assay [5] it was > 30 µM (inactive); at Myosin-10, > 30 µM (inactive). The Kd in assay [6], in assay [7] and in [8] was > 30 µM (inactive) in each case.

As to `CCn1cc(-c2ccnc3[nH]c(-c4cccc(CN(C)C)c4)cc23)c(-c2ccc(NC(=O)N(C)C)cc2)n1` [GSK-1070916], the Kd (in assay [2]; in assay [3]; in assay [9]; in [5]; at Myosin-10; in assay [6]) was > 30 µM (inactive) each time. Besides, the Kd in [7] and in assay [8] was > 30 µM (inactive) in each case.

Regarding `O=C(Nc1cc(C(F)(F)F)cc(C(F)(F)F)c1)c1cc(Cl)ccc1O` [IMD-0354], the Kd (in [1]; in assay [2]; in assay [3]; in [4]; in assay [5]; at Myosin-10) was > 30 µM (inactive) in each case. Further, the Kd in assay [6], in assay [7] and in [8] was > 30 µM (inactive) throughout.

For `CNC(=O)c1cccc2cc(Oc3ccnc4cc(OCC5(N)CC5)c(OC)cc34)ccc12` [LUCITANIB], the Kd (in assay [1]; in assay [2]; in [3]; in assay [4]; in assay [5]; on Myosin-10) was > 30 µM (inactive) each time. The Kd in assay [6], in [7] and in assay [8] was > 30 µM (inactive) each time.

`CCOc1cc2ncc(C#N)c(Nc3ccc(F)c(Cl)c3)c2cc1NC(=O)/C=C/CN(C)C` [PELITINIB]: the Kd in assay [1], in [2], in [3], in assay [4], in assay [9] and in assay [5] was > 30 µM (inactive) in each case. Also, the Kd (at Myosin-10; in assay [6]; in assay [7]) was > 30 µM (inactive) each time.

As for `CO[C@H]1C[C@@H]2CC[C@@H](C)[C@@](O)(O2)C(=O)C(=O)N2CCCC[C@H]2C(=O)O[C@H]([C@H](C)C[C@@H]2CC[C@@H](OP(C)(C)=O)[C@H](OC)C2)CC(=O)[C@H](C)/C=C(\C)[C@@H](O)[C@@H](OC)C(=O)[C@H](C)C[C@H](C)/C=C/C=C/C=C/1C` [RIDAFOROLIMUS], the Kd (in assay [1]; in [2]; in assay [3]; in [4]; in [5]; at Myosin-10) was > 30 µM (inactive) each time. Further, the Kd in assay [6], in assay [7] and in assay [8] was > 30 µM (inactive) in each case.

Turning to `CN1CCN(CCOc2cc(OC3CCOCC3)c3c(Nc4c(Cl)ccc5c4OCO5)ncnc3c2)CC1` [SARACATINIB], the dissociation constant Kd in assay [1] was 4.85 µM (active); in [2], > 30 µM (inactive); in assay [4] it was > 30 µM (inactive); in [9], > 30 µM (inactive); in assay [5], > 30 µM (inactive); at Myosin-10 it was > 30 µM (inactive). In assay [7], the Kd is > 30 µM (inactive).

Regarding `Cn1ncc(Cl)c1-c1cc(C(=O)N[C@H](CN)Cc2ccc(F)c(F)c2)oc1Cl` [UPROSERTIB], the Kd (in assay [1]; in assay [2]; in [3]; in assay [4]; in assay [5]; at Myosin-10) was > 30 µM (inactive) throughout. For the same molecule, the Kd was > 30 µM (inactive) in assay [6], 3.59 µM in assay [7] and > 30 µM (inactive) in [8].

For the molecule `CC(C)c1cc(CNc2nc(Nc3cc(C4CC4)[nH]n3)cc(N3CCN(C)CC3)n2)on1` [XL-228], the Kd was > 30 µM (inactive) in assay [1]; > 30 µM (inactive) in assay [2]; 0.171 µM (active) in assay [3]; > 30 µM (inactive) in assay [4]; > 30 µM (inactive) in assay [9]; > 30 µM (inactive) in assay [5]. Moreover, the Kd is > 30 µM (inactive) in assay [6], > 30 µM (inactive) in assay [7] and 0.023 µM (active) in assay [8].

As usually defined, the Kd is the concentration at which binding is half-saturated.
